The test system of series [1] is TSPYL5 gene. Kind of series: RT-PCR of TSPYL5 expression level after siRNA transduction, A549. The note with it: A549 cells, 40~80 nM RNAi, compared to siControl. Type of series: cell-based, human. Here is the method: (§1) In order to compare the expression levels of TSPYL5 in lung cancer cell lines A549, H460, and H1299, reverse transcription polymerase chain reaction (RT-PCR) was performed. The RT-PCR was performed in the following manner: a mixture of 10 mM dNTPs, 5×RT buffer, 0.5 μg/μl oligo dT, addition of each of 4 μg of heat denaturated (70° C., 10 min) total RNA of lung cancer cell lines H460, A549, and H1299, and 200 U/μl M-MLV RTase, 0.02% diethyl pyrocarbonate (DEPC)-treated sterilized water to a final volume of 20 μl, followed by reaction at 45° C. for 30 min. Next, the mixture was heated to 94° C. for 5 min, and then snap-cooled on ice to deactivate the M-MLV RTase. 1 μl of the cDNA synthesized by the method was mixed with 10× buffer (MgCl2 free), 2.5 mM dNTPs, 10× MgCl2, and Taq DNA polymerase. 10 pmol of primer for TSPYL5 or β-actin was added to the mixture and amplified under the following conditions. Then, for TSPYL5 primer, EcoRI/Forward: 5′-[…]-3′ represented by SEQ ID No: 3 as a forward primer and EcoRI/reverse: 5′-CCGGAATTCTC AGTTGGATTGGCTCACCCC-3′ represented by SEQ ID NO: 4 as a reverse primer were used. Pre-denaturation at 94° C. for 5 min, denaturation at 94° C. for 1 min, annealing at 60° C. for 1.5 min, cycles of elongation at 72° C. for 1 min were performed, followed by post-elongation at 72° C. for 10 min. […]

Series [2] deals with TSPYL5 gene. Kind of series: RT-PCR of TSPYL5 expression level after siRNA transduction, H1299. Conditions: H1299 cells, 40~80 nM RNAi, compared to siControl. Type of series: cell-based, human. Here is the method: as §1

For “C2-131714: 25mer TSPYL5 stealth-RNAi duplex oligoribonucleotide, SEQ ID Nos: 10 and 11 (chain 1 AAAGGUAGAACUGCAAGGGAUUGGG; chain 2 CCCAAUCCCUUGCAGUUCUACCUUU; Invitrogen Stealth RNAi, modifications not given here)”, the “expression levels of TSPYL5” value in the series on TSPYL5 gene [1] and in the series on TSPYL5 gene [2] was “reduced the most effectively” throughout.

The record behind these values is patent US20110111400A1, “METHOD FOR ENHANCING CHEMICAL SENSITIVITY OR RADIOSENSITIVITY OF CANCER CELLS BY INHIBITING EXPRESSION OF TSPYL5” (Korea Atomic Energy Research Institute, priority 2009, published 2011).
